Test results published in ChEMBL document CHEMBL4507276 (2021).

Tests used:
[1] = target: T1, 5-hydroxytryptamine receptor 2C (Homo sapiens) (UniProt P28335); test: 5HT2CH_AGON Cerep selectivity data (BI); settings: filed as agonist, Compound concentration 20.0 uM
T1 sequence (whole entry): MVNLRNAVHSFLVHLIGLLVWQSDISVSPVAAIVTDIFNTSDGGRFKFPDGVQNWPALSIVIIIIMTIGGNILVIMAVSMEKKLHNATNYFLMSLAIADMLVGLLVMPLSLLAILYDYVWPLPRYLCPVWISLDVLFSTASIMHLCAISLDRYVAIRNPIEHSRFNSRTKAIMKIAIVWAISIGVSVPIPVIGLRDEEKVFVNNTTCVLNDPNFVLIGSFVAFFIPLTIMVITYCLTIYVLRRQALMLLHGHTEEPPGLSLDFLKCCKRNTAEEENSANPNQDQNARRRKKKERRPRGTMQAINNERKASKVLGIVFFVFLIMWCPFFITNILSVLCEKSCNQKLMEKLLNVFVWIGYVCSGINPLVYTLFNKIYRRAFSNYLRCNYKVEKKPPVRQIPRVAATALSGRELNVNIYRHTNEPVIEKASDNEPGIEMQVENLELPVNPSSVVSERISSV

[2] = target: 5-hydroxytryptamine receptor 4 (Homo sapiens) (UniProt Q13639); test: 5HT4EH_ANTAG Cerep selectivity data (BI); settings: filed as antagonist, Compound concentration 20.0 uM
Chain of 5-hydroxytryptamine receptor 4 (Homo sapiens) (Q13639 whole entry): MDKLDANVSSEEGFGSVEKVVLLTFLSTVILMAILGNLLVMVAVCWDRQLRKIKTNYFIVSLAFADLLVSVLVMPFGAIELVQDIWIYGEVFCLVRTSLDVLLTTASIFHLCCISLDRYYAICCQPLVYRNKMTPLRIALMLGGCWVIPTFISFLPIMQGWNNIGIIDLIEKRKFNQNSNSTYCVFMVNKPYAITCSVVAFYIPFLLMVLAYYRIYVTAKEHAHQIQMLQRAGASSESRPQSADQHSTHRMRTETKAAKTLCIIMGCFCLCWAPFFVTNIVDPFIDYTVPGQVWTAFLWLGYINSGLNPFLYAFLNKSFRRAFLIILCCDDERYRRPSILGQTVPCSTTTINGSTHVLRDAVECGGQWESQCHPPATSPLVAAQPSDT

[3] = target: Alpha-2B adrenergic receptor (Homo sapiens) (UniProt P18089); test: ALPHA2BH_ANTAG Cerep selectivity data (BI); settings: filed as antagonist, Compound concentration 20.0 uM
Chain of Alpha-2B adrenergic receptor (Homo sapiens) (P18089 whole entry): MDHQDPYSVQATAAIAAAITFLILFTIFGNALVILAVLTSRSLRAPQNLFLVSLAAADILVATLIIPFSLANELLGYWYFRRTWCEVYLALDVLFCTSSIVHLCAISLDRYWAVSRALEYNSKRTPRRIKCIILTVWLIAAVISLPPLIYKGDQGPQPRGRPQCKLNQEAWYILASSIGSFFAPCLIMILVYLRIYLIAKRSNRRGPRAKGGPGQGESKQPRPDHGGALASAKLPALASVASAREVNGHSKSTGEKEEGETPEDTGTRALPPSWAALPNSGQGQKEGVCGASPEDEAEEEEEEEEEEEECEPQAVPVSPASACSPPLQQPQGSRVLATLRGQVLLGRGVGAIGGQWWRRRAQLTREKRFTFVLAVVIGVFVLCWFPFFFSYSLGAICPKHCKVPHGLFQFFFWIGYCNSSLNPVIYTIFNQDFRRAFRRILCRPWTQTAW

[4] = target: Androgen receptor (Homo sapiens) (UniProt P10275); test: ANDROGEN/H Cerep selectivity data (BI); settings: Compound concentration 20.0 uM
[5] = target: Prostaglandin G/H synthase 1 (Homo sapiens) (UniProt P23219); test: COX1_HU Cerep selectivity data (BI); settings: Compound concentration 20.0 uM
Chain of Prostaglandin G/H synthase 1 (Homo sapiens) (P23219 whole entry): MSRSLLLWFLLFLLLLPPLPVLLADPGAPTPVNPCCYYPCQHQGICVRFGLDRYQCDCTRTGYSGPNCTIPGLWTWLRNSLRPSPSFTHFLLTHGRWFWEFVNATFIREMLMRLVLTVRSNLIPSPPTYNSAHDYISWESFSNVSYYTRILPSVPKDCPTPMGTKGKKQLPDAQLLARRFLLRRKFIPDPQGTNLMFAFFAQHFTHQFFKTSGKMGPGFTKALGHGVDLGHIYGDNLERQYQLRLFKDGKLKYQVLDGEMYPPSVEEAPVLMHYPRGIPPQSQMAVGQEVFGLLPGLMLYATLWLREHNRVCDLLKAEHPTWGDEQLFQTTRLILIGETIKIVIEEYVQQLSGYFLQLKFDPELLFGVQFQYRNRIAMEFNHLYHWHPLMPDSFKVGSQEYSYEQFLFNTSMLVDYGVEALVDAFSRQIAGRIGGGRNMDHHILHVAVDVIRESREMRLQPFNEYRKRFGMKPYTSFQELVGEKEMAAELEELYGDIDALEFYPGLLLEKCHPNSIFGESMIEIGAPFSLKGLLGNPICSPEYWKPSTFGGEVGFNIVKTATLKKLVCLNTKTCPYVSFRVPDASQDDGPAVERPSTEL

[6] = target: Muscarinic acetylcholine receptor M3 (Homo sapiens) (UniProt P20309); test: M3/H Cerep selectivity data (BI); settings: Compound concentration 20.0 uM
Chain of Muscarinic acetylcholine receptor M3 (Homo sapiens) (P20309 whole entry, looked up): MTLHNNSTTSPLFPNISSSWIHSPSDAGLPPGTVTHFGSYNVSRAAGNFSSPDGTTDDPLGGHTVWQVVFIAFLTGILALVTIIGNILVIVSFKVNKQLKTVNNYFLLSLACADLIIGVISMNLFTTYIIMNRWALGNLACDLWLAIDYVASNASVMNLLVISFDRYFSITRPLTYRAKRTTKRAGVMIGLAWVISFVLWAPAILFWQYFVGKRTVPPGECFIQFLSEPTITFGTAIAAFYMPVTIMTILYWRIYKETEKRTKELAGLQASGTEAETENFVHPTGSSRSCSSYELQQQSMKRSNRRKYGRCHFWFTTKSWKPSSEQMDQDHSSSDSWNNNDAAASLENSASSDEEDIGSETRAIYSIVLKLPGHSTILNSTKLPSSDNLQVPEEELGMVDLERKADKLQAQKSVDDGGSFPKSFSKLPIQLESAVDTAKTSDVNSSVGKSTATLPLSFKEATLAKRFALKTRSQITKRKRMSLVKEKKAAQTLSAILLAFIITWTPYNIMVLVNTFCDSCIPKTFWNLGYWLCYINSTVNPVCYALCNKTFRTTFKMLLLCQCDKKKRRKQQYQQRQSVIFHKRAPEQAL

[7] = target: Glucocorticoid receptor (Homo sapiens) (UniProt P04150); test: GLUCOCORTICO Eurofins-Panlabs selectivity data (BI); settings: Compound concentration 10.0 uM
Chain of Glucocorticoid receptor (Homo sapiens) (P04150 whole entry): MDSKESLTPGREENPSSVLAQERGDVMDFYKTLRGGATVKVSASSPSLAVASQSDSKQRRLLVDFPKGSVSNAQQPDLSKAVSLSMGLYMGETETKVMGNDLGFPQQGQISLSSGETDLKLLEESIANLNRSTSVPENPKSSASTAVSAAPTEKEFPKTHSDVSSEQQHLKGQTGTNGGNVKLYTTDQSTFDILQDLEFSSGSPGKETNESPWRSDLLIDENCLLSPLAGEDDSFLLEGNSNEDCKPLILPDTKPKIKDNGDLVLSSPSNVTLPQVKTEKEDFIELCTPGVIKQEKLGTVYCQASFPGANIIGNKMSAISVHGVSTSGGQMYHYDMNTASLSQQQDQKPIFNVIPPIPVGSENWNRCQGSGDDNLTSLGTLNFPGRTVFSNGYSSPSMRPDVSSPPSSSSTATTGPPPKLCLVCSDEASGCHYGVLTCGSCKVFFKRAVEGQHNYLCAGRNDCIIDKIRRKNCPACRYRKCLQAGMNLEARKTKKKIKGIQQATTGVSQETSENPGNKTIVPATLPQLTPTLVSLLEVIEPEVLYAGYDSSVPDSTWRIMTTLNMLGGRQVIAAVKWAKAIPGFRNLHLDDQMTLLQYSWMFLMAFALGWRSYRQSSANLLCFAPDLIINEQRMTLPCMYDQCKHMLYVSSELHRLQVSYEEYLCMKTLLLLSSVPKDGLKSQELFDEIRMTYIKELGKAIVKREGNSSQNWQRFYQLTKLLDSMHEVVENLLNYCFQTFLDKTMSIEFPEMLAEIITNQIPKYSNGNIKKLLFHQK

[8] = target: Acetylcholine receptor subunit alpha (Homo sapiens) (UniProt P02708); test: NACH/H Eurofins-Panlabs selectivity data (BI); settings: Compound concentration 10.0 uM
Chain of Acetylcholine receptor subunit alpha (Homo sapiens) (P02708 whole entry): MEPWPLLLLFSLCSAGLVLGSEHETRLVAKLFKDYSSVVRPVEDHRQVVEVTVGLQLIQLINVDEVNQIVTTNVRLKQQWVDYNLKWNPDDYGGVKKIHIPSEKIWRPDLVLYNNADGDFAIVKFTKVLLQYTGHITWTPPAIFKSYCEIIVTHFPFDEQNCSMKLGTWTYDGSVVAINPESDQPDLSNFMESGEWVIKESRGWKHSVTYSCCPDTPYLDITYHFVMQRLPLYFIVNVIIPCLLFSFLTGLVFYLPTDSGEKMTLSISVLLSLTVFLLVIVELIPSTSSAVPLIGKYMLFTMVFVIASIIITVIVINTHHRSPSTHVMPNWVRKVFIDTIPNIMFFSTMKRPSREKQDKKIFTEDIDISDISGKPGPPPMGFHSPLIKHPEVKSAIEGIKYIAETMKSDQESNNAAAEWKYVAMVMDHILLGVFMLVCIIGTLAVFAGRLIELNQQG

[9] = target: Serine/threonine-protein kinase MRCK alpha (Homo sapiens) (UniProt Q5VT25); test: CDC42 BPA Invitrogen selectivity data (BI); settings: Compound concentration 3.0 uM
Chain of Serine/threonine-protein kinase MRCK alpha (Homo sapiens) (Q5VT25 whole entry): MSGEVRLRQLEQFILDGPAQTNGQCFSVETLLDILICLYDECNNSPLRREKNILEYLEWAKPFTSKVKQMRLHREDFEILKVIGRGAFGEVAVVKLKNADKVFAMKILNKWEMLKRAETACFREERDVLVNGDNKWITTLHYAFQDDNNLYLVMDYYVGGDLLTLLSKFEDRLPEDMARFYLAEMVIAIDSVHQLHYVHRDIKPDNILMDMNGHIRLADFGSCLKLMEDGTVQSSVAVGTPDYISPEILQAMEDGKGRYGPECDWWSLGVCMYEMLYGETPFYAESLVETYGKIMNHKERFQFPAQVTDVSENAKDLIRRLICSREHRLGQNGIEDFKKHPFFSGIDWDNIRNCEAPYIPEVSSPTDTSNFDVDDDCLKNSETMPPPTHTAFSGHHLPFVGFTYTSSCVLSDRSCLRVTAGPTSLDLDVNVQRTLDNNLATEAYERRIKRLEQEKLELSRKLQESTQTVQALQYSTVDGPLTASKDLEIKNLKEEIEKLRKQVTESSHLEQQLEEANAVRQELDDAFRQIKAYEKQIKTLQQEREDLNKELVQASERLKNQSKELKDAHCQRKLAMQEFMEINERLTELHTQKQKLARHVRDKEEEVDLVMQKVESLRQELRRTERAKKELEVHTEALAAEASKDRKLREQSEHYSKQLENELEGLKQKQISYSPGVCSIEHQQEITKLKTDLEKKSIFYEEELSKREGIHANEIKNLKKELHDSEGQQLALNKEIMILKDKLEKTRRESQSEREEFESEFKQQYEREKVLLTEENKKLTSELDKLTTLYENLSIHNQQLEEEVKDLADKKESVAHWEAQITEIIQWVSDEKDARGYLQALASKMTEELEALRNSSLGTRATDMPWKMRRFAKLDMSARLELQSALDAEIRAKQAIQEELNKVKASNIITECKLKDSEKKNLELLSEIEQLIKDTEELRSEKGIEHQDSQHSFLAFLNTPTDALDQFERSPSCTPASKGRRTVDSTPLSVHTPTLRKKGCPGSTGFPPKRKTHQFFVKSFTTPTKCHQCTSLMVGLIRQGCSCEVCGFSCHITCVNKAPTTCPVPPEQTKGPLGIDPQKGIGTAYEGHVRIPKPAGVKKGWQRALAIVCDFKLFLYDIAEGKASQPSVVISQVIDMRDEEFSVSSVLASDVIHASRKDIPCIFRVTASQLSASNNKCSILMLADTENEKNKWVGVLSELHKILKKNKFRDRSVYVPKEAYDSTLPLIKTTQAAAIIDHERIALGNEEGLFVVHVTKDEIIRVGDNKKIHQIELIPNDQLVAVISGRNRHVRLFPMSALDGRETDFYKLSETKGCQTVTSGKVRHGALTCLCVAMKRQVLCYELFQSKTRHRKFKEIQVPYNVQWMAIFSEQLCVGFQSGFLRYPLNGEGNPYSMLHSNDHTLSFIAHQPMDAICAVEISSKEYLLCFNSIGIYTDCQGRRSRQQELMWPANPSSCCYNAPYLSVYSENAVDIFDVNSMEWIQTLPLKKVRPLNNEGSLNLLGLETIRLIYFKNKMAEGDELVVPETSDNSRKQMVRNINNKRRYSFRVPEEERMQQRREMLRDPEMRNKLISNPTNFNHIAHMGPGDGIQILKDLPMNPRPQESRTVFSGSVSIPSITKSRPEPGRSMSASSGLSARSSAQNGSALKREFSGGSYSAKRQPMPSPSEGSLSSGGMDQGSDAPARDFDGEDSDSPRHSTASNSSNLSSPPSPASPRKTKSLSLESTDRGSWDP

[10] = target: T2, Inhibitor of nuclear factor kappa-B kinase subunit alpha (Homo sapiens) (UniProt O15111); test: CHUK_IKKA Invitrogen selectivity data (BI); settings: Compound concentration 3.0 uM
T2 sequence (whole entry): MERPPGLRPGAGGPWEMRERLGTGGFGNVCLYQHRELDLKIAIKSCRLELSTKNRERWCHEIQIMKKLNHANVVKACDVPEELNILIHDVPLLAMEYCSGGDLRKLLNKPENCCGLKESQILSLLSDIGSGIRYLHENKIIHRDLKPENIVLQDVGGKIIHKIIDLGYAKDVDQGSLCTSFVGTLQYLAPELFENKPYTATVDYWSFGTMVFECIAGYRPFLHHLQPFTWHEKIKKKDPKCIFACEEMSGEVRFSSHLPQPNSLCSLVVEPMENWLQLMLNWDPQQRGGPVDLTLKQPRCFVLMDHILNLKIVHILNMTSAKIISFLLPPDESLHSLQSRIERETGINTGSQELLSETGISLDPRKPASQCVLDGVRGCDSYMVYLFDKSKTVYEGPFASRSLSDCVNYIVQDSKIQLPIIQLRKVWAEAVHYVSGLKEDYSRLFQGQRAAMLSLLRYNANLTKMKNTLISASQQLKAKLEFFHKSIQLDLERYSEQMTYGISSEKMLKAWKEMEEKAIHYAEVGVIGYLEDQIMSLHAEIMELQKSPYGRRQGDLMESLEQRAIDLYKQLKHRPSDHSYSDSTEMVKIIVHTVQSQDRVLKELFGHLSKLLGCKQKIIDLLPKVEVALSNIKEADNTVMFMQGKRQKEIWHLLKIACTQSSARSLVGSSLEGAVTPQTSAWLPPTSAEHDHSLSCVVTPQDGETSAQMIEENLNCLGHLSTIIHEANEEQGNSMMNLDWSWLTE

[11] = target: T3, Serine/threonine-protein kinase 4 (Homo sapiens) (UniProt Q13043); test: STK4 Invitrogen selectivity data (BI); settings: Compound concentration 3.0 uM
T3 sequence (whole entry): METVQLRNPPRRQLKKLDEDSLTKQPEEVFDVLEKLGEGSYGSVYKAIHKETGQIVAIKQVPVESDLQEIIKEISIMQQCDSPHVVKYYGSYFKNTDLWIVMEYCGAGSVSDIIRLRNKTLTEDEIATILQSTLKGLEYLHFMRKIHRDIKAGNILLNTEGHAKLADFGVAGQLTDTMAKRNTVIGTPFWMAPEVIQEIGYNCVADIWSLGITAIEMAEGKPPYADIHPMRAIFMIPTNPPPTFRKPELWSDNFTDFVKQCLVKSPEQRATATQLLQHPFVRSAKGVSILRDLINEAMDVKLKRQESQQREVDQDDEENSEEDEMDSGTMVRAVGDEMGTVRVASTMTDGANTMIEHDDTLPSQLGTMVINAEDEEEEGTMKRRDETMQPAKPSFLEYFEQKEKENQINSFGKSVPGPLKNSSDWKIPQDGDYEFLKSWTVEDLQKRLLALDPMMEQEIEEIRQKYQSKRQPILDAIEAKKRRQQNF

Measured: residual activity

CN(C)C(=O)Cn1cc(-c2nc([C@@](C)(c3ccc(-c4cnc(N)nc4)cc3)C3CC3)no2)cn1 [BI 665915]
inactive: [1] 90% | [2] 111% | [3] 100% | [4] 102% | [5] 62% | [6] 83% | [7] 111% | [8] 97% | [9] 102% | [10] 99.5% | [11] 99%
